Measurements as given in patent publication US20260133193A1, “COMPOSITIONS AND METHODS FOR TREATING INFLAMMATORY DISEASES” (University of Washington, priority 2018, published 2026).

Columns and labels:
Format in all cases: cell-based, human
FcgRIIA on neutrophils [1] = test: FcgRIIA shedding, flow cytometry of neutrophil cell surface FcgRs; conditions: for neutrophil cell surface expression of FcgRIIA after stimulus: flow cytometry, clone IV.3, vs non-stimulated; for effect on R848 (TLR7/8)-mediated shedding of FcgRIIA on neutrophils: agent added before R848, flow cytometry IV.3
Excerpt: To determine the mechanism for the TLR-induced reduction in RNP-IC phagocytosis, we analyzed the neutrophil surface expression of FcgRs after exposure to TLR ligand. Neutrophils were activated with R848 and cell surface expression of FcgRs analyzed by flow cytometry. The results were presented as FcgR levels as compared to no R848 added (% of control). The experiment was repeated five (FcgRI), seven (FcgRIII), and twenty-five (FcgRIIA) times; combined results were compared using paired t test (FcgRIIA, P<0.0001; FcgRI, P=0.027; FcgRIII, P=0.0044). […] In this experiment, neutrophils were activated with the TLR7/8 agonist R848 and analyzed for FcgRIIA at different time-points and concentrations. The experiment was repeated four (concentration) and six (kinetics) times; combined results were compared using paired t test (30 min, P=0.0158; 60 min, P<0.0001; 120 min, P=0.0003; 0.125 μg/mL, P=0.0071; 0.25 μg/mL, P=0.0058; 0.5 μg/mL, P=0.0008; 1 μg/mL, P<0.0001; 2 μg/mL, P<0.0001). […] For these experiments, neutrophils were activated with TLR ligands (LPS, 1 μg/mL, PAM3CSK4 (5 μg/mL), CpG DNA (2 μg/mL), Loxoribine (0.1 mM), CL075 (2.5 μg/mL) or R848 (2 μg/mL)) for 60 minutes or 4 hours and analyzed for FcgRIIA, FcgRII or CD11b and CD66b cell surface expression by flow cytometry. Experiments were repeated six (LPS, P=0.0008), eight (CpG DNA, P=0.035; Loxoribine, P<0.0001, and CL075, P<0.0001), ten (PAM3CSK4, P<0.0001) and forty times (R848, P<0.0001); combined results were compared using paired t test. Additional experiments were repeated four and eight times; combined results were compared using paired t test (CD11b: R848, P<0.0001; LPS, P=0.0002; PAM, P<0.0001; CpG DNA, P<0.0001; CD66b: R848, P<0.0001; LPS, P<0.0001; PAM, P<0.0001; CpG DNA, P=0.014).
Neutrophils were activated by LPS (1 μg/mL), R848 (2 μg/mL), PAM3CSK4 (5 μg/mL), Loxoribine (0.1 mM), CL075 (2.5 μg/mL) or CpG DNA (2 μg/mL) for 30 minutes, followed by analysis of cell surface expression of CD32A (IV.3; Stemcell Technologies, FUN-2, BioLegend), CD16 (clone 3G8), CD64 (clone 10.1), and CD66b (all from BioLegend) by flow cytometry. For intracellular staining, neutrophils were fixed in 2% paraformaldehyde for 10 minutes, permeabilized with saponin (diluted 1:1000 in PBS) for 15 minutes and stained with anti-CD32A antibodies diluted 1:100. In some experiments, neutrophils were incubated with inhibitors (DPI (25 μM, Sigma), apocynin (100 μM, Sigma), GM-6001 (10 μM, Enzo Life Sciences), LY294002 (10 μM), cOmplete Protease Inhibitor Cocktail Tablets (1× dissolved in H2O, Roche), neutrophil elastase IV inhibitor (25 μM, Calbiochem), E-64 (1 μM, Sigma), 4-(2-Aminoethyl)benzenesulfonyl fluoride hydrochloride (AEBSF, 0.1 mM, Sigma), CMK (25 μM, Enzo Life Sciences), cytochalasin B (5 μM, Sigma) or chymostatin (10 μg/mL, Sigma)) or recombinant furin (100 ng/mL, maximal dose tolerated by the neutrophils, Peprotech) 30 minutes prior to addition of stimuli. In some experiments cell surface levels of B cell activating factor (BAFF, Biolegend) was analyzed according to the same protocol as described above. Monocytes and pDCs were detected using antibodies to CD14 (BioLegend) and CD304 (Miltenyi Biotech), respectively.

BAFF = BAFF cell surface expression on neutrophils; conditions: furin 100 ng/mL, 30 minutes before R848
Method: To determine which protease(s) were involved in the shedding of FcgRIIA, neutrophils were incubated with selective protease inhibitors prior to the addition of the TLR agonist. Cell surface levels of FcgRIIA (IV.3) was analyzed by flow cytometry upon R848 activation in the presence of a pan protease inhibitor or inhibitors of matrix metalloproteases (GM6001, 10 μM), cysteine proteases (E-64, 1 μM), serine proteases (AEBSF, 100 μM), neutrophil elastase (Elastase inhibitor IV, 25 μM), cathepsin G (chymostatin, 10 μg/mL) or furin (chloromethylketone (CMK, 25 μM). The experiment was repeated three (E-64), four (Pan Prot.inh., P<0.0001; AEBSF, P=0.0004; chymostatin; and CMK, P=0.0038), five (GM6001), and seven (NEi) times; combined results were compared using paired t test. […] Additionally, neutrophils were incubated with furin (100 ng/mL) or CMK 30 minutes prior to addition of R848. BAFF cell surface expression was analyzed by flow cytometry. […] Briefly, neutrophils were incubated with furin (100 ng/mL) in presence or absence of R848 and analyzed for FcgRIIA levels by flow cytometry. […] Finally, supernatant from activated neutrophils was fractionated and analyzed for capacity to induce shedding of monocyte FcgRIIA without, or with prior boiling of the fractions. […]

FcgRIIA on neutrophils [2] = test: SLE serum-mediated FcgRIIA shedding on healthy control neutrophils; conditions: sera from 6 SLE patients, IV.3/FUN2
Method: As neutrophil and monocyte FcgRIIA shedding was highly correlated in SLE patients upon ex vivo analysis (correlation analysis for ex vivo monocyte and neutrophil (PMN) FcgRIIA shedding in SLE patients was performed; combined results were analyzed using Spearman's correlation (r=0.84, P<0.0001)), we asked whether this could be attributed to circulating proteases, likely neutrophil-derived. […] Consistent with a role of RNA ICs, serum-mediated FcgRIIA shedding was higher in patients with anti-Sm/RNP antibodies (sera from 6 SLE patients, pre-incubated with either RNase, a pan-protease inhibitor (prot.inh.), or cytochalasin B (Cyto B, 5 μM) were added to neutrophils from a healthy individual and FcgRIIA shedding analyzed by flow cytometry; combined results were compared using paired t test (RNase: P=0.012; prot.inh.: P=0.0002; Cyto B: P<0.0001)). […] Finally, SLE serum-mediated shedding of FcgRIIA from healthy control neutrophils strongly correlated with the FcgRIIA shedding observed upon ex vivo isolation of the SLE patient's neutrophils (correlation between ex vivo FcgRIIA shedding observed on SLE neutrophils with the shedding ability by the serum obtained from the same SLE patients (n=12); combined results were analyzed by Spearman's correlation (r=0.73, P=0.0096)). […]

neutrophils = test: ROS analysis in neutrophils (DHR123, OxyBURST); conditions: flow cytometry and fluorimetry, cell impermeable ROS dye

| Compound | neutrophil cell surface expression of FcgRIIA after stimulus (FcgRIIA on neutrophils [1]) | effect on R848 (TLR7/8)-mediated shedding of FcgRIIA on neutrophils (FcgRIIA on neutrophils [1]) | further results |
| --- | --- | --- | --- |
| C=CCn1c(=O)n([C@@H]2O[C@H](CO)[C@@H](O)[C@H]2O)c2nc(N)[nH]c(=O)c21 [Loxoribine] | reduced neutrophil cell surface levels of FcgRIIA, but not of FcgRIIIB |  |  |
| Cl.NCCc1ccc(S(=O)(=O)F)cc1 [AEBSF, 4-(2-Aminoethyl)benzenesulfonyl fluoride hydrochloride] |  | dependent on serine proteases |  |
| [Cl-].c1ccc2c(c1)[I+]c1ccccc1-2 [DPI] |  | completely restored cell surface levels of FcgRIIA | effect on LPS- or PAM3CSK4-mediated shedding of FcgRIIA (FcgRIIA on neutrophils [1]; neutrophils activated with LPS or PAM3CSK4 in presence of DPI): dependent on NADPH oxidase |
| COc1cc(C(C)=O)ccc1O [apocynin] |  | completely restored cell surface levels of FcgRIIA |  |
| furin: recombinant furin, pro-protein convertase (Peprotech) |  | did not affect FcgRIIA shedding on neutrophils | BAFF cell surface expression (BAFF): increased cell surface BAFF levels |
| C=C1[C@@H](C)[C@H]2[C@H](Cc3ccccc3)NC(=O)[C@]23OC(=O)/C=C/[C@H](O)CCC[C@@H](C)C/C=C/[C@H]3[C@@H]1O [cytochalasin B] |  |  | effect on SLE serum-mediated FcgRIIA shedding (FcgRIIA on neutrophils [2]): almost completely abrogated serum-mediated FcgRIIA shedding |
| PAM3CSK4 | reduced neutrophil cell surface levels of FcgRIIA, but not of FcgRIIIB |  |  |
| CCCCCCCCCCCCCC(=O)O[C@@H]1[C@@H](C)[C@@]2(O)[C@@H](C=C(CO)C[C@]3(O)C(=O)C(C)=C[C@@H]23)[C@@H]2C(C)(C)[C@]12OC(C)=O [PMA] |  |  | cellular localization of ROS generation (neutrophils): induced both intracellular and extracellular ROS generation |
| CCCc1nc2c(N)nc3ccccc3c2s1 [CL075] | reduced neutrophil cell surface levels of FcgRIIA, but not of FcgRIIIB |  |  |
